Marks after values point to notes of the source that are not given here.

The data set in a line: Measurement of LogP values by HPLC on reversed phase columns (EEC directive 79/831 Annex V.A8). Type of data set: physicochemical. A digest of the protocol:
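LogP measured by reversed-phase HPLC following EEC directive 79/831 Annex V.A8. Lambda-max taken from UV spectra at 200–400 nm at chromatographic peak maxima; diastereoisomer values listed separately.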
Regarding `COc1ccc(CNc2nsc(C(=O)NC(C)c3ccc(Br)cc3)c2Cl)cc1` (stereo not drawn) [I-1273], the LogP is 4.23[a].

On to `COc1ccc(CNc2nsc(C(=O)NCc3cccc(C(C)C)n3)c2Cl)cc1` [I-1274], for which the LogP was 2.94[a]. In the case of `COc1ccc(CNc2nsc(C(=O)NC(C)c3cccc4ccccc34)c2Cl)cc1` (stereo not drawn) [I-1275], the LogP is 4.32[a].

Regarding `COc1ccc(CNc2nsc(C(=O)NC(C)c3ccc(C(F)(F)F)cc3)c2Cl)cc1` (stereo not drawn) [I-1276], the LogP is 4.23[a].

With `COc1ccc(CN(C(=O)OC(C)(C)C)c2nsc(C(=O)N(C)OC)c2Cl)cc1` [I-1286], the LogP was 3.75[a]. Turning to `N#Cc1ccccc1CNC(=O)c1snc(N)c1Cl` [I-1288], the LogP was 1.43[a]. Consider `N#Cc1cccc(CNC(=O)c2snc(N)c2Cl)c1` [I-1289], for which the LogP was 1.41[a]. `Nc1nsc(C(=O)NCC2CCCCC2Cl)c1I` (stereo not drawn) [I-1293]: the LogP was 2.50[a].

With `Nc1nsc(C(=O)NCC2CCCCC2(F)F)c1Cl` (stereo not drawn) [I-1294], the LogP is 2.07[a]. Turning to `Nc1nsc(C(=O)NCC2CC=C(F)CC2)c1F` (stereo not drawn) [I-1296], the LogP was 1.69[a]. The same measure, in the same setting: under `Nc1nsc(C(=O)NCC2CCC(F)(F)CC2)c1F` [I-1297] stands 1.66[a].

For `Nc1nsc(C(=O)NCC2CCCCC2F)c1Cl` (stereo not drawn) [I-1306], the LogP was 1.97[a]. With `CCOC(=O)c1cccc(CNC(=O)c2snc(N)c2Cl)c1` [I-1307], the LogP is 2.03[a].

Consider `COc1ccc(CNc2nsc(C(=O)NC3CCc4ccc(C(C)(C)C)cc4C3)c2Cl)cc1` (stereo not drawn) [I-1308], for which the LogP was 5.41[a]. For the compound `COc1ccc(CNc2nsc(C(=O)NCc3cnc(Cl)cn3)c2Cl)cc1` [I-1309], the LogP is 2.98[a]. Regarding `COc1ccc(CNc2nsc(C(=O)NC3CCCc4ccncc43)c2Cl)cc1` (stereo not drawn) [I-1310], the LogP is 1.67[a]. Same read-out and setting: as for `COc1ccc(CNc2nsc(C(=O)NC3CCCc4cc(C(C)(C)C)ccc43)c2Cl)cc1` (stereo not drawn) [I-1311], the figure is 5.46[a]; as for `CCn1ncc(CNC(=O)c2snc(NCc3ccc(OC)cc3)c2Cl)c1C(F)F` [I-1312], 3.09[a]; as for `COc1ccc(CNc2nsc(C(=O)NCc3cc(C(F)(F)F)cc(C(F)(F)F)c3)c2Cl)cc1` [I-1313], 4.46[a].

With `COc1ccc(CNc2nsc(C(=O)NCc3ccncc3C)c2Cl)cc1` [I-1314], the LogP was 1.52[a]. `COc1ccc(CNc2nsc(C(=O)NCc3cnn(CC(F)F)c3)c2Cl)cc1` [I-1315]: the LogP is 2.58[a].

Take `COc1ccc(CNc2nsc(C(=O)NCc3ccnc(OC)n3)c2Cl)cc1` [I-1316]: the LogP is 2.56[a].

Regarding `COc1ccc(CNc2nsc(C(=O)NC(C)c3nccs3)c2Cl)cc1` (stereo not drawn) [I-1317], the LogP was 2.82[a]. With `COc1ccc(CNc2nsc(C(=O)NCc3ccc(OC)cn3)c2Cl)cc1` [I-1318], the LogP was 2.45[a]. Same read-out and setting: under `COc1ccc(CNc2nsc(C(=O)NCc3cccc(OC)n3)c2Cl)cc1` [I-1319] stands 3.41[a]; under `COc1ccc(CNc2nsc(C(=O)NCc3ccc(C)n3C)c2Cl)cc1` [I-1320], 3.39[a]; under `COc1ccc(CNc2nsc(C(=O)NCc3ccc(OC)c(C(F)(F)F)c3)c2Cl)cc1` [I-1321], 3.85[a]. As to `COc1ccc(CNc2nsc(C(=O)NC3(c4ccccc4Br)CC3)c2Cl)cc1` [I-1322], the LogP is 4.40[a]. Still for that read-out and setting: under `COc1ccc(CNc2nsc(C(=O)NCc3cncs3)c2Cl)cc1` [I-1323] stands 2.39[a]; under `COc1ccc(CNc2nsc(C(=O)NC(Cn3ccnc3)C(C)(C)C)c2Cl)cc1` (stereo not drawn) [I-1324], 1.82[a]. Consider `COc1ccc(CNc2nsc(C(=O)NC3CC(C)(C)Cc4oc(C)cc43)c2Cl)cc1` (stereo not drawn) [I-1325], for which the LogP was 4.74[a]. Still for that read-out and setting: as for `COc1ccc(CNc2nsc(C(=O)NC(C#N)c3ccc(F)c(F)c3)c2Cl)cc1` (stereo not drawn) [I-1326], the figure is 3.61[a].

As to `COc1ccc(CNc2nsc(C(=O)NC3(c4ccccc4Cl)CC3)c2Cl)cc1` [I-1327], the LogP is 4.24[a].

As to `COc1ccc(CNc2nsc(C(=O)NCc3cc(OC)cc(OC)c3)c2Cl)cc1` [I-1328], the LogP is 3.41[a].

With `COc1ccc(CNc2nsc(C(=O)NC(C)(C)c3ccon3)c2Cl)cc1` [I-1329], the LogP was 3.04[a]. Turning to `COc1ccc(CNc2nsc(C(=O)NCc3cnccc3OC)c2Cl)cc1` [I-1330], the LogP is 1.49[a]. As for `COc1ccc(CNc2nsc(C(=O)NC3CCc4cc(C(C)(C)C)ccc43)c2Cl)cc1` (stereo not drawn) [I-1331], the LogP is 5.22[a]. Same read-out and setting: as for `COc1ccc(CNc2nsc(C(=O)NC(C)c3nc(C(C)C)no3)c2Cl)cc1` (stereo not drawn) [I-1332], the figure is 3.46[a]; as for `CCc1c(CNC(=O)c2snc(NCc3ccc(OC)cc3)c2Cl)cnn1CC` [I-1333], 2.82[a]; as for `COc1ccc(CNc2nsc(C(=O)NC3CCCCc4ccccc43)c2Cl)cc1` (stereo not drawn) [I-1334], 4.40[a]. Regarding `COc1ccc(CNc2nsc(C(=O)NC(C#N)c3cccc(Cl)c3Cl)c2Cl)cc1` (stereo not drawn) [I-1335], the LogP was 4.05[a]. Regarding `COc1ccc(CNc2nsc(C(=O)NC3CCOCC3C)c2Cl)cc1` (stereo not drawn) [I-1336], the LogP is 2.80[a]. For the compound `COc1ccc(CNc2nsc(C(=O)NC(C)C3=NOCC3)c2Cl)cc1` (stereo not drawn) [I-1337], the LogP was 2.56[a]. Regarding `COc1ccc(CNc2nsc(C(=O)NC(C)c3ccno3)c2Cl)cc1` (stereo not drawn) [I-1338], the LogP is 2.73[a]. As to `COc1ccc(CNc2nsc(C(=O)NCc3cn(C4CCCC4)nc3C)c2Cl)cc1` [I-1339], the LogP was 3.23[a]. As for `COc1ccc(CNc2nsc(C(=O)NCc3csc4ccc(Cl)cc34)c2Cl)cc1` [I-1340], the LogP is 4.37[a].

Turning to `COc1ccc(CNc2nsc(C(=O)NCc3cnn(C)c3C)c2Cl)cc1` [I-1341], the LogP is 2.33[a]. The same measure, in the same setting: as for `COc1ccc(CNc2nsc(C(=O)NCc3cncc(OC)c3)c2Cl)cc1` [I-1342], the figure is 1.89[a].

As for `COc1ccc(CNc2nsc(C(=O)NC(C)c3ccc(Cl)nc3)c2Cl)cc1` (stereo not drawn) [I-1343], the LogP is 3.17[a].

Take `COc1ccc(CNc2nsc(C(=O)NCc3cc(OC)c(OC)c(OC)c3)c2Cl)cc1` [I-1344]: the LogP is 3.08[a]. Consider `COc1ccc(CNc2nsc(C(=O)NCc3cccc(C)n3)c2Cl)cc1` [I-1345], for which the LogP was 1.78[a].

Take `COc1ccc(CNc2nsc(C(=O)NC3CCC4CCCC43)c2Cl)cc1` (stereo not drawn) [I-1346]: the LogP was 4.35[a]. Turning to `COc1ccc(CNc2nsc(C(=O)NC3CCC(C4CCCCC4)CC3)c2Cl)cc1` (stereo not drawn) [I-1347], the LogP is 6.25[a].

Take `COc1ccc(CNc2nsc(C(=O)NC(C)c3ccc(OC)c(OC)c3)c2Cl)cc1` (stereo not drawn) [I-1348]: the LogP was 3.25[a]. As for `CCn1cc(C(C)NC(=O)c2snc(NCc3ccc(OC)cc3)c2Cl)c(C)n1` (stereo not drawn) [I-1349], the LogP was 2.73[a]. Same read-out and setting: under `C=CCONC(=O)c1snc(NCc2ccc(OC)cc2)c1Cl` [I-1353] stands 2.62[a]; under `Nc1nsc(C(=O)NCC2(Br)CCCCC2)c1F` [I-1358], 2.56[a]; under `C#Cc1c(N)nsc1C(=O)NCC1CCCCC1F` (stereo not drawn) [I-1359], 2.05[a]. Consider `Cc1nonc1NC(=O)c1snc(N)c1Cl` [I-1361], for which the LogP was 1.27[a]. Turning to `Cc1nc(CNC(=O)c2snc(N)c2Cl)cs1` [I-1362], the LogP was 1.14[a]. As for `CCC(NC(=O)c1cc(N)ns1)C1CCCCC1` (stereo not drawn) [I-1407], the LogP is 2.30[b]. For `CC(C)(C)c1ccc2c(c1)CC(NC(=O)c1snc(N)c1Cl)CC2` (stereo not drawn) [I-1534], the LogP was 3.94[a]. Still for that read-out and setting: as for `CCC1(C)CC(NC(=O)c2snc(N)c2Cl)CC(C)(C)C1` (stereo not drawn) [I-1535], the figure is 4.01[a]; as for `Nc1nsc(C(=O)NCC2CCCCC2Cl)c1F` (stereo not drawn) [I-1536], 2.16[a]. Same read-out and setting: under `Nc1nsc(C(=O)NCC2CCCCC2)c1N` [I-1539] stands 1.37[a]; under `COc1ccc(CNc2nsc(C(=O)NC3CC34CCCCC4)c2Cl)cc1` (stereo not drawn) [I-1548], 4.39[a]. As to `Nc1nsc(C(=O)NC2CC23CCCCC3)c1Cl` (stereo not drawn) [I-1549], the LogP is 2.54[a]. The same measure, in the same setting: under `Nc1nsc(C(=O)NCc2ccccc2Br)c1Cl` [I-1553] stands 1.88[a]; under `Nc1nsc(C(=O)NCC2CCCCC2C(F)(F)F)c1Cl` (stereo not drawn) [I-1554], 2.51[a].

On to `COc1ccc(CNc2nsc(C(=O)NCc3ccc(C#N)cc3)c2Cl)cc1` [I-1555], for which the LogP was 3.23[a]. Take `COc1ccc(CNc2nsc(C(=O)N(Cc3ccc(F)cc3F)C(=O)c3ccc(C(F)(F)F)cc3)c2Cl)cc1` [I-1556]: the LogP was 5.14[a]. As to `CC1CCCC(NC(=O)c2snc(N)c2Cl)C1` (stereo not drawn) [I-1563], the LogP is 2.37[a].

Regarding `CC1CCCCC1NC(=O)c1snc(N)c1I` (stereo not drawn) [I-1564], the LogP was 2.14[a].

For the compound `Nc1nsc(C(=O)NCC2CCCCC2C(F)(F)F)c1Cl` (stereo not drawn) [I-1566], the LogP was 2.63[a]. Take `Nc1nsc(C(=O)NCC2CCCCC2C(F)(F)F)c1Cl` (stereo not drawn) [I-1567]: the LogP is 2.69[a]. In the case of `COc1ccc(CNC(=O)c2snc(N)c2Cl)cc1O` [I-1568], the LogP is 1.03[a]. For the compound `CC(NC(=O)c1snc(N)c1Cl)C1CCCCC1` (stereo not drawn) [I-1569], the LogP was 2.84[a]. Take `CC(C)(C)OC(=O)Nc1nsc(C(=O)NCC2CCCCC2Cl)c1Cl` (stereo not drawn) [I-1571]: the LogP is 3.53[a]. As for `CC(C)(C)OC(=O)Nc1nsc(C(=O)NCC2CCCCC2Cl)c1F` (stereo not drawn) [I-1572], the LogP was 3.34[a].

Turning to `CC(C)(C)OC(=O)Nc1nsc(C(=O)NCC2CCCCC2Cl)c1Cl` (stereo not drawn) [I-1578], the LogP was 3.52[a]. On to `Nc1nsc(C(=O)NCC2CCC(Cl)CC2)c1Cl` (stereo not drawn) [I-1579], for which the LogP is 2.20[a]. Turning to `Nc1nsc(C(=O)NCC2CCCC(Cl)C2)c1Cl` (stereo not drawn) [I-1580], the LogP is 2.23[a].

Regarding `CC(C)(C)OC(=O)Nc1nsc(C(=O)NCC2CCCCC2Cl)c1Cl` (stereo not drawn) [I-1581], the LogP is 3.56[a].

`O=C(NC1CCCCC1)c1snc(N=C(c2ccccc2)c2ccccc2)c1Cl` [II-001]: the “LogP [a]” value is 5.13^[a].

For the origin of these results see patent US20190110476A1, “NOVEL ISOTHIAZOLAMIDES, PROCESSES FOR THEIR PREPARATION AND THEIR USE AS FUNGICIDES” (priority 2014, published 2019).
